According to ChEMBL document CHEMBL5291721, “A preclinical secondary pharmacology resource illuminates target-adverse drug reaction associations of marketed drugs” (Nat Commun, 2023):

Assays:
[1] = biological target: T1, Muscarinic acetylcholine receptor M2 (Homo sapiens, UniProt P08172); type: functional, cell-based
T1 sequence (P08172 whole entry): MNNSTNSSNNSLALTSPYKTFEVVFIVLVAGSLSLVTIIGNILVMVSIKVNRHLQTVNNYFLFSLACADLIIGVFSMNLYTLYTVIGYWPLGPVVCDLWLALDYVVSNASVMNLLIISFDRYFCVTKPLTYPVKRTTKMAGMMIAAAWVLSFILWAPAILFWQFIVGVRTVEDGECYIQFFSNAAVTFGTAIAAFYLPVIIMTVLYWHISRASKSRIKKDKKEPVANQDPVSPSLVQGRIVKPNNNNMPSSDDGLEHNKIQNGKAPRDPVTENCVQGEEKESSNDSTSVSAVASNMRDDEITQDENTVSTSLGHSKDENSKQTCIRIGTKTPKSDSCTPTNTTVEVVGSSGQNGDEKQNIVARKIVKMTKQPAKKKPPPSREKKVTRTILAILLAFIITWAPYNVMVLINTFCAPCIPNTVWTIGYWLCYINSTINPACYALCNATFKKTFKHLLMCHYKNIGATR

[2] = biological target: T2, Alpha-2A adrenergic receptor (Homo sapiens, UniProt P08913); type: functional, cell-based
T2 sequence (P08913 whole entry): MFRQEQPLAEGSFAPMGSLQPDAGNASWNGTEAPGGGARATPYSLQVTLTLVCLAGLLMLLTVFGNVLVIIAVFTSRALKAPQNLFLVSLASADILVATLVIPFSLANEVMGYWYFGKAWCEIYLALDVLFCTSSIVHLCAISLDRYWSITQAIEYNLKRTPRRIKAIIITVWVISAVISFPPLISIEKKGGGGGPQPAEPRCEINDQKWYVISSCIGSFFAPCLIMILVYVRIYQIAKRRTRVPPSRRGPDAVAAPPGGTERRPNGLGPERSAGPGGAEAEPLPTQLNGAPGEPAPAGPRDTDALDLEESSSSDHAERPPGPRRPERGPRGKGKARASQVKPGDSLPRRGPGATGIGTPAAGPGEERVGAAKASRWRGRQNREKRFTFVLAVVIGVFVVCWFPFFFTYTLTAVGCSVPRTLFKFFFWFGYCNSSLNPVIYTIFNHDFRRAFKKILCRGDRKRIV

[3] = biological target: 5-hydroxytryptamine receptor 2B (Homo sapiens, UniProt P41595); type: functional, cell-based
Sequence of 5-hydroxytryptamine receptor 2B (P41595 whole entry): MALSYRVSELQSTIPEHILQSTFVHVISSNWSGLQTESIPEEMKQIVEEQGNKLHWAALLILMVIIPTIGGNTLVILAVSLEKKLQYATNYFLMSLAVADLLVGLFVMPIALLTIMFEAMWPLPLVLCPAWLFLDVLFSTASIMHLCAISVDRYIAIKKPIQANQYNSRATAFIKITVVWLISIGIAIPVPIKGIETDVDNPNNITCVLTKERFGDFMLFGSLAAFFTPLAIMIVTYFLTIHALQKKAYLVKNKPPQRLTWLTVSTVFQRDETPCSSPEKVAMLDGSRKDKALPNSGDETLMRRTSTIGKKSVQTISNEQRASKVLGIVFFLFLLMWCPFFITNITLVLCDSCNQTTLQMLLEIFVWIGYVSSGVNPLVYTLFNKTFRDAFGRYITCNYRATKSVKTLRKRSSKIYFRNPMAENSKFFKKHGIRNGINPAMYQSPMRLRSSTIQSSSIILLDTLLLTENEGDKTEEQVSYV

[4] = biological target: T1, Muscarinic acetylcholine receptor M2; type: functional, cell-based; remark: listed apart in the source
[5] = biological target: T3, 5-hydroxytryptamine receptor 1A (Homo sapiens, UniProt P08908); type: functional, cell-based
T3 sequence (P08908 whole entry): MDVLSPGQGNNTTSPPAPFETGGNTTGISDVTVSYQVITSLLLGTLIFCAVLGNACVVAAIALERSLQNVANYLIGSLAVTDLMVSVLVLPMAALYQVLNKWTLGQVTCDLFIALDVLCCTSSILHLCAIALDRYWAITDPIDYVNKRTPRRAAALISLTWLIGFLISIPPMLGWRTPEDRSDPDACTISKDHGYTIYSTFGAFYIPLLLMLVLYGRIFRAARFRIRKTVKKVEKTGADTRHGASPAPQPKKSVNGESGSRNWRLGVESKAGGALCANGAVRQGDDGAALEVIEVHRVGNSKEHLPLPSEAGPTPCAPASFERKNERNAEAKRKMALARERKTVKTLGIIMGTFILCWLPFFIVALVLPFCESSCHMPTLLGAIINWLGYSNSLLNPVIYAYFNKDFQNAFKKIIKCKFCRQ

Adenosine receptor A2a = Adenosine receptor A2a (Homo sapiens, UniProt P29274)
Sequence of Adenosine receptor A2a (P29274 whole entry): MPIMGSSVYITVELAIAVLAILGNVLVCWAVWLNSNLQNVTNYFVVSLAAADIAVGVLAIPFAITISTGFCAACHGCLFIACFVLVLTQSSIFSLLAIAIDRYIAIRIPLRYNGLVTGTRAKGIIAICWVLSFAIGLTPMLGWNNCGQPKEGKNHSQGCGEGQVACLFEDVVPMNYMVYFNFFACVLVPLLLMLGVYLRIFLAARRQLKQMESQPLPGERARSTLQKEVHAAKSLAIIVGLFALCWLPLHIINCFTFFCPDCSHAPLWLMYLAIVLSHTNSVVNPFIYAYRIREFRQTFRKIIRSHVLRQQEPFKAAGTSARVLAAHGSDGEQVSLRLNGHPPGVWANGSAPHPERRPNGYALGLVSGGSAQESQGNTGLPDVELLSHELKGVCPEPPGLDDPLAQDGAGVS

Thromboxane A2 receptor = biological target: T4, Thromboxane A2 receptor (Homo sapiens, UniProt P21731)
T4 sequence (P21731 whole entry): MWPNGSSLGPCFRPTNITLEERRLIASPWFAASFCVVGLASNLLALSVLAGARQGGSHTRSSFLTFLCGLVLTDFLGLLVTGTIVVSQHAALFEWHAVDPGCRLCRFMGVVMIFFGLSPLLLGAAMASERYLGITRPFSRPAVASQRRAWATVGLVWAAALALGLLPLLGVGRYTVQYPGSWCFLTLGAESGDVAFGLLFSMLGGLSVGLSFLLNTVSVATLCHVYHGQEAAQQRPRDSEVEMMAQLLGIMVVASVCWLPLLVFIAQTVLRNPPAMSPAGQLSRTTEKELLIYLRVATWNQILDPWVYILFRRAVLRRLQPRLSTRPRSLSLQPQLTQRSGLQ

[6] = biological target: Sodium-dependent dopamine transporter (Homo sapiens, UniProt Q01959)
Sequence of Sodium-dependent dopamine transporter (Q01959 whole entry): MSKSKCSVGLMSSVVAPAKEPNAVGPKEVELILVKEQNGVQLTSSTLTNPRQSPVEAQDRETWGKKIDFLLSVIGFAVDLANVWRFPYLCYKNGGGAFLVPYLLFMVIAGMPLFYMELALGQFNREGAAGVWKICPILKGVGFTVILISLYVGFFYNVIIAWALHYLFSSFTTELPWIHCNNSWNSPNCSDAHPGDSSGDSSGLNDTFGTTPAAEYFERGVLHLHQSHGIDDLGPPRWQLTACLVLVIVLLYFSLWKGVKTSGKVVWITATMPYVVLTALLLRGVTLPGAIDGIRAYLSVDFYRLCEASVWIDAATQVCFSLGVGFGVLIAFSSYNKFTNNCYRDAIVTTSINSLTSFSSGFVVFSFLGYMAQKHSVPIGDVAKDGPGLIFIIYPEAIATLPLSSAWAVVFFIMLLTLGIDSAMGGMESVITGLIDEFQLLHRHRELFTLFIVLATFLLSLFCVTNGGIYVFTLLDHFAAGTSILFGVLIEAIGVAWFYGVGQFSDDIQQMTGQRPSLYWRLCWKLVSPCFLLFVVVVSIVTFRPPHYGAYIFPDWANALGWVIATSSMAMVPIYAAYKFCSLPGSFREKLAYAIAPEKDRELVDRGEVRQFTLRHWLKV

[7] = biological target: T5, Muscarinic acetylcholine receptor M1 (Homo sapiens, UniProt P11229); type: functional
T5 sequence (P11229 whole entry): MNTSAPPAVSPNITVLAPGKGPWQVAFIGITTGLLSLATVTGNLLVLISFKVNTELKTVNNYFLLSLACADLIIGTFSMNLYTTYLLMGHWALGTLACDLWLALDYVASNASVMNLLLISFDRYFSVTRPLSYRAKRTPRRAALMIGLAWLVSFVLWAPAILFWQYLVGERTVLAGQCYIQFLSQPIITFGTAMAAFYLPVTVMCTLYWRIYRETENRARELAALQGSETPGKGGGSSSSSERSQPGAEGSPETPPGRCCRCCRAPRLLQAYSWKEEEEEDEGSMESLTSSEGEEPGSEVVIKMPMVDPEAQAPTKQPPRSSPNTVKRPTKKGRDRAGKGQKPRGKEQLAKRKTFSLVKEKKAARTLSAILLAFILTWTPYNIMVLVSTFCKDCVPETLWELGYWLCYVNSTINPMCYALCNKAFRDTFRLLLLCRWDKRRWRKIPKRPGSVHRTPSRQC

Mu-type opioid receptor = Mu-type opioid receptor (Homo sapiens, UniProt P35372); test: biochemical; type: functional
Sequence of Mu-type opioid receptor (P35372 whole entry): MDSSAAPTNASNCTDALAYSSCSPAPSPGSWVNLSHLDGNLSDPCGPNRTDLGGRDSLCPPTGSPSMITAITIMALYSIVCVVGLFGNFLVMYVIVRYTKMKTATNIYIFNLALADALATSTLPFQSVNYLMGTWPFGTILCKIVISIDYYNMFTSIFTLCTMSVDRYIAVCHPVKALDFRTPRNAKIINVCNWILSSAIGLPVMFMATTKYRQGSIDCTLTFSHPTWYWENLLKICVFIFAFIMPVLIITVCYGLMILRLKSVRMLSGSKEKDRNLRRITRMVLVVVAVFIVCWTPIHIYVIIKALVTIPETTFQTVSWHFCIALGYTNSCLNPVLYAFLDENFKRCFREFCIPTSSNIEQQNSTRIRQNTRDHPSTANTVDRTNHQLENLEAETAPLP

[8] = biological target: Gamma-aminobutyric acid receptor subunit alpha-1 (Rattus norvegicus, UniProt P62813)
Sequence of Gamma-aminobutyric acid receptor subunit alpha-1 (P62813 whole entry): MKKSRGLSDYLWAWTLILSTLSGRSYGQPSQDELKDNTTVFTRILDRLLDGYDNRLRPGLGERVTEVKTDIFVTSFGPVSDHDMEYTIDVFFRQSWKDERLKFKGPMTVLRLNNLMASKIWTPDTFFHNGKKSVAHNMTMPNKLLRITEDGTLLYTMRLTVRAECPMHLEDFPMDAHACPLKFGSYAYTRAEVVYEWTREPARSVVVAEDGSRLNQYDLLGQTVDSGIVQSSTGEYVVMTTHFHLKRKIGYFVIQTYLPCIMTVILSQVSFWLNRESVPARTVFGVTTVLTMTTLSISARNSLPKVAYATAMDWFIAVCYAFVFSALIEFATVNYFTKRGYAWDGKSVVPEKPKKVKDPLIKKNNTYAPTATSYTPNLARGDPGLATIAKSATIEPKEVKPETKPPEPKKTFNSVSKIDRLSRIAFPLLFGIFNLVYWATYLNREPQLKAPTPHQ

[9] = biological target: 3',5'-cyclic-AMP phosphodiesterase 4D (Homo sapiens, UniProt Q08499); type: functional
Sequence of 3',5'-cyclic-AMP phosphodiesterase 4D (Q08499 whole entry): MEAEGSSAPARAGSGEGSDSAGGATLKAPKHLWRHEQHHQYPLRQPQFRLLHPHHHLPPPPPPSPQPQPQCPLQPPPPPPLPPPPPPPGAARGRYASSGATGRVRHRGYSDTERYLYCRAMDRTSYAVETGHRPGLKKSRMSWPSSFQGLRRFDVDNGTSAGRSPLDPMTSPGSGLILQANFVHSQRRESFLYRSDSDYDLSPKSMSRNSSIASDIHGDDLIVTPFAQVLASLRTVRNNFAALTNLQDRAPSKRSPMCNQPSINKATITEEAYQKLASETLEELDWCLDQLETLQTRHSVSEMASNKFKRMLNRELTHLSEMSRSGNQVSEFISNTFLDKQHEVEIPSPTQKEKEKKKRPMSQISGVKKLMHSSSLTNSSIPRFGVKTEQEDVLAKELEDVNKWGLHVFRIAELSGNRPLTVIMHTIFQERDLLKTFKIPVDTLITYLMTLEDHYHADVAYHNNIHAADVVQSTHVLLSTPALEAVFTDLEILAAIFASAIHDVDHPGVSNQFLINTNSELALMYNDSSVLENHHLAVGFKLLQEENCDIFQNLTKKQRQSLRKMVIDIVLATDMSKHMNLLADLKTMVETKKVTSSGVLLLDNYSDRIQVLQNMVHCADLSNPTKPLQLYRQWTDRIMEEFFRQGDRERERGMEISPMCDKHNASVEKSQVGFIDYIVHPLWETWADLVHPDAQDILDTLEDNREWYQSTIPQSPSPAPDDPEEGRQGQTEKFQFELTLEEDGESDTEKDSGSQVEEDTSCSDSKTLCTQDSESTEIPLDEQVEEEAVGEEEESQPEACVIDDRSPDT

[10] = biological target: Kappa-type opioid receptor (Homo sapiens, UniProt P41145)
Sequence of Kappa-type opioid receptor (P41145 whole entry): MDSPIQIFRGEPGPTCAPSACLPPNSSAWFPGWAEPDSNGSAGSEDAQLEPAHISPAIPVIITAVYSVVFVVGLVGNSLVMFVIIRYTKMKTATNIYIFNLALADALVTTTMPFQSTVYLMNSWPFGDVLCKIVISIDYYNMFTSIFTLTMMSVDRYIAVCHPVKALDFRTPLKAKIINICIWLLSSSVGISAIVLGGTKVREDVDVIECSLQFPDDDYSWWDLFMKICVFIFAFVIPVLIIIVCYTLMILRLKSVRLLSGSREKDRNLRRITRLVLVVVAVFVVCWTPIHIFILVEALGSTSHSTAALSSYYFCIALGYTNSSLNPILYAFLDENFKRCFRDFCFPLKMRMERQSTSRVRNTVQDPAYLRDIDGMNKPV

[11] = biological target: Neuronal acetylcholine receptor subunit alpha-4 (Homo sapiens, UniProt P43681)
Sequence of Neuronal acetylcholine receptor subunit alpha-4 (P43681 whole entry): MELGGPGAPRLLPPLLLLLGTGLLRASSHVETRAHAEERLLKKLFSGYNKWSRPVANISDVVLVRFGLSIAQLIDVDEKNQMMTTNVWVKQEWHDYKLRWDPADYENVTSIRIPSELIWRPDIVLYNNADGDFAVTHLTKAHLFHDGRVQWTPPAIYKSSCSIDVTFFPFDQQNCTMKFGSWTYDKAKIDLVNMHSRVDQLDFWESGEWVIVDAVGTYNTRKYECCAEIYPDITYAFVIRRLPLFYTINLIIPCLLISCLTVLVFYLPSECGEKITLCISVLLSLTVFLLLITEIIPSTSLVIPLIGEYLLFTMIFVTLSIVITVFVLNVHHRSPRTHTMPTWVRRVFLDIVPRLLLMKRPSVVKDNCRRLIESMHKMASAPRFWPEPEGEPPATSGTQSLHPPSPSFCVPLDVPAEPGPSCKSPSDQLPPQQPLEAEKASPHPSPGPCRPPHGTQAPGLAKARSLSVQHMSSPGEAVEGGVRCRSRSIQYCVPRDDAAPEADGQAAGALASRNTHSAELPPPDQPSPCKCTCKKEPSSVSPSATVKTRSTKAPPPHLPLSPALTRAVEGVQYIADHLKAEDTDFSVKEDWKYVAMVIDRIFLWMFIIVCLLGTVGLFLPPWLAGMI
Also: assay procedure not described here.

COc1ccc2nc3cc(Cl)ccc3c(Nc3cc(CN4CCCC4)c(O)c(CN4CCCC4)c3)c2n1 [PYRONARIDINE]
AC50 [1]: > 30 µM | AC50 [2]: > 30 µM | AC50 [3]: > 30 µM | AC50 [4]: 15 µM | AC50 [5]: > 30 µM | AC50 (Adenosine receptor A2a): > 30 µM | AC50 (Thromboxane A2 receptor): > 30 µM | AC50 [6]: 11 µM | AC50 [7]: > 30 µM | AC50 (Mu-type opioid receptor): > 30 µM | AC50 [8]: > 30 µM | AC50 [9]: 24 µM | AC50 [10]: 15 µM | AC50 [11]: 26 µM

CCCCCCCCCCCCCCCCCCCCCC(=O)Nc1ccn([C@@H]2O[C@H](CO)[C@@H](O)[C@@H]2O)c(=O)n1 [ENOCITABINE]
AC50 [1]: > 30 µM | AC50 [2]: > 30 µM | AC50 [3]: > 30 µM | AC50 [4]: > 30 µM | AC50 [5]: > 30 µM | AC50 (Adenosine receptor A2a): > 30 µM | AC50 (Thromboxane A2 receptor): > 30 µM | AC50 [6]: > 30 µM | AC50 [7]: > 30 µM | AC50 (Mu-type opioid receptor): > 30 µM | AC50 [8]: > 30 µM | AC50 [9]: > 30 µM | AC50 [10]: > 30 µM | AC50 [11]: > 30 µM

C=C1/C(=C\C=C2/CCC[C@]3(C)[C@@H]([C@H](C)/C=C/[C@@H](O)C4CC4)CC[C@@H]23)C[C@@H](O)C[C@@H]1O [CALCIPOTRIENE]
AC50 [1]: > 30 µM | AC50 [2]: > 30 µM | AC50 [3]: > 30 µM | AC50 [4]: > 30 µM | AC50 [5]: 27 µM | AC50 (Adenosine receptor A2a): > 30 µM | AC50 (Thromboxane A2 receptor): > 30 µM | AC50 [6]: > 30 µM | AC50 [7]: > 30 µM | AC50 (Mu-type opioid receptor): > 30 µM | AC50 [8]: > 30 µM | AC50 [9]: > 30 µM | AC50 [10]: > 30 µM | AC50 [11]: > 30 µM

COc1ccc(-c2noc(CC(=O)O)c2-c2ccc(OC)cc2)cc1 [MOFEZOLAC]
AC50 [1]: > 30 µM | AC50 [2]: > 30 µM | AC50 [3]: > 30 µM | AC50 [4]: > 30 µM | AC50 [5]: > 30 µM | AC50 (Adenosine receptor A2a): > 30 µM | AC50 (Thromboxane A2 receptor): > 30 µM | AC50 [6]: > 30 µM | AC50 [7]: > 30 µM | AC50 (Mu-type opioid receptor): > 30 µM | AC50 [8]: > 30 µM | AC50 [9]: > 30 µM | AC50 [10]: > 30 µM | AC50 [11]: > 30 µM

CC(=O)[C@@]1(O)CC[C@H]2[C@@H]3C=C(Cl)C4=CC(=O)[C@@H]5C[C@@H]5[C@]4(C)[C@H]3CC[C@@]21C [CYPROTERONE]
AC50 [1]: > 10 µM | AC50 [2]: > 10 µM | AC50 [3]: > 10 µM | AC50 [4]: > 10 µM | AC50 [5]: > 10 µM | AC50 (Adenosine receptor A2a): > 10 µM | AC50 (Thromboxane A2 receptor): > 10 µM | AC50 [6]: > 10 µM | AC50 [7]: > 10 µM | AC50 (Mu-type opioid receptor): > 30 µM | AC50 [8]: > 10 µM | AC50 [9]: > 10 µM | AC50 [10]: 5.32 µM | AC50 [11]: > 10 µM

CC(=O)O[C@H](CC(=O)[O-])C[N+](C)(C)C [ACETYLCARNITINE]
AC50 [1]: > 30 µM | AC50 [2]: > 30 µM | AC50 [3]: > 30 µM | AC50 [4]: > 30 µM | AC50 [5]: > 30 µM | AC50 (Adenosine receptor A2a): > 30 µM | AC50 (Thromboxane A2 receptor): > 30 µM | AC50 [6]: > 30 µM | AC50 [7]: > 30 µM | AC50 (Mu-type opioid receptor): > 30 µM | AC50 [8]: > 30 µM | AC50 [9]: > 30 µM | AC50 [10]: > 30 µM | AC50 [11]: > 30 µM
